Experimental findings from ChEMBL document CHEMBL5465560, “Selectivity Literature for EUbOPEN Chemogenomic Library” (2024) are described below.

The target in experiment [1] is G protein-coupled receptor kinase 4 (Homo sapiens) (UniProt P32298). In words: Selectivity interaction (Kinase panel (Z-LYTE Assay)) EUB0001632a GRK4. Conditions: at 10 µM.
Experiment [2] addresses Cyclin-dependent kinase 2/cyclin E1 (Homo sapiens) (UniProt P24864+P24941). Kind of experiment: (§1) Selectivity interaction (LanthaScreen Eu Kinase Binding Assay) EUB0001632a CDK2. Conditions: at 10 µM. The class given is protein-complex assay. In general terms: In TR-FRET formats the signal depends on donor and acceptor labels being close together.
Experiment [3] deals with CDK2/Cyclin A1 (Homo sapiens) (UniProt P24941+P78396). Described as §1. The class given is protein-complex assay. Conditions: at 10 µM.
The target of experiment [4] is CDK2/Cyclin O (Homo sapiens) (UniProt P24941+P22674). The description is as §1. The class given is protein-complex assay. Conditions: at 10 µM.
Experiment [5] concerns the target T1, Mitogen-activated protein kinase kinase kinase 3 (Homo sapiens) (UniProt Q99759).
T1 sequence (whole entry): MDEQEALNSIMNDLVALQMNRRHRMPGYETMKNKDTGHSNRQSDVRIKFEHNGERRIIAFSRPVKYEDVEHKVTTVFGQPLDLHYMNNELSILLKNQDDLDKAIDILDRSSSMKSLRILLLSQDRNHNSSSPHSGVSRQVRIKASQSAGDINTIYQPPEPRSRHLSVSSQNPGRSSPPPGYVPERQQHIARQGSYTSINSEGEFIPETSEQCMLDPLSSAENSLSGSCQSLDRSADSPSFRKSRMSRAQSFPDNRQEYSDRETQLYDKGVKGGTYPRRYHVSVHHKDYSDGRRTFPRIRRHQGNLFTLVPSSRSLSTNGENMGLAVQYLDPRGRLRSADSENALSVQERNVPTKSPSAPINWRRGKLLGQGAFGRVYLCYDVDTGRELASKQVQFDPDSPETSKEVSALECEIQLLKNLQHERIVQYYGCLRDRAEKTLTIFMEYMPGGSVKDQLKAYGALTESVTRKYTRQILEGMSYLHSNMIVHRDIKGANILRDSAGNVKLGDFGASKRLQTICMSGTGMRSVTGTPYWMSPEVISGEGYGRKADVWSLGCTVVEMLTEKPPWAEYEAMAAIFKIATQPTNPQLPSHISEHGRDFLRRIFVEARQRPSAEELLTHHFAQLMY
In words: Selectivity interaction (LanthaScreen Eu Kinase Binding Assay) EUB0001632a MAP3K3. The following applies: at 10 µM.

The test system of experiment [6] is Tyrosine-protein kinase ABL1 (Homo sapiens), P00519 [T315I]. In words: Selectivity interaction (KinomeScan (DiscoverX)) EUB0000666a ABL1. The following applies: at 10 µM.
Experiment [7] has as its target Tyrosine-protein kinase SYK (Homo sapiens, UniProt P43405). In words: Selectivity interaction (KinomeScan (DiscoverX)) EUB0000607a SYK. Conditions: at 10 µM.
Experiment [8] has as its target Bone morphogenetic protein receptor type-1A (Homo sapiens, UniProt P36894). In words: Selectivity interaction (KinomeScan (DiscoverX)) EUB0000607a BMPR1A. The following applies: at 10 µM.
In experiment [9] the target is T1, Mitogen-activated protein kinase kinase kinase 3 (Homo sapiens). Conditions: at 10 µM.
For experiment [10], the target named is Cyclin-dependent kinase 15 (Homo sapiens) (UniProt Q96Q40). Conditions: at 10 µM.
Sequence of Cyclin-dependent kinase 15 (Homo sapiens) (Q96Q40 whole entry): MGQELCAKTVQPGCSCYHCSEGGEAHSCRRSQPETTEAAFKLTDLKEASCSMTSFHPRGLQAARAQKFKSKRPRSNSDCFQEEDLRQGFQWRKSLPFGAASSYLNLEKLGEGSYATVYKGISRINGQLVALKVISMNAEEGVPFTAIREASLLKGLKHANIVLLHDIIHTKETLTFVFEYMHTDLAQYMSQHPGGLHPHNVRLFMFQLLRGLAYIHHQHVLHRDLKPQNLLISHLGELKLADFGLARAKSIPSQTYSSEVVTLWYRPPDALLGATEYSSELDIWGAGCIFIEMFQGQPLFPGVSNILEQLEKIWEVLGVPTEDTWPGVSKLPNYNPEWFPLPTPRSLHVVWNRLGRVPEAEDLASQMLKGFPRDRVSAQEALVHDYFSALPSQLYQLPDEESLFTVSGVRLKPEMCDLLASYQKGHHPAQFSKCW
For experiment [11], the target named is Mitogen-activated protein kinase 11 (Homo sapiens) (UniProt Q15759). In words: Selectivity interaction (ActivX KiNativ screen (kinase selectivity in THP-1 cell lysates)) EUB0000639a MAPK11. The class given is subcellular. The following applies: lysate.
Sequence of Mitogen-activated protein kinase 11 (Homo sapiens) (Q15759 whole entry): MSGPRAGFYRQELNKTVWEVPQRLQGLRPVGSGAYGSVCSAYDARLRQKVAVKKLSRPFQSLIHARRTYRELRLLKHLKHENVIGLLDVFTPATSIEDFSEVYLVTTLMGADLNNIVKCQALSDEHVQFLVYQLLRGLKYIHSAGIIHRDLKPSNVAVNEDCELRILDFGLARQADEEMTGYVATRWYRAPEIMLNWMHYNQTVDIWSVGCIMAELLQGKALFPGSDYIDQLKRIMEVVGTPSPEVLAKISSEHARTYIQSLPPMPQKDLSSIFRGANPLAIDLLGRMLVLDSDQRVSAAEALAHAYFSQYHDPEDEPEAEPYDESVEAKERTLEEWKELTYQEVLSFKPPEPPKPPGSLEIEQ
Experiment [12] has as its target T2, Serine/threonine-protein kinase 17A (Homo sapiens) (UniProt Q9UEE5).
T2 sequence (whole entry): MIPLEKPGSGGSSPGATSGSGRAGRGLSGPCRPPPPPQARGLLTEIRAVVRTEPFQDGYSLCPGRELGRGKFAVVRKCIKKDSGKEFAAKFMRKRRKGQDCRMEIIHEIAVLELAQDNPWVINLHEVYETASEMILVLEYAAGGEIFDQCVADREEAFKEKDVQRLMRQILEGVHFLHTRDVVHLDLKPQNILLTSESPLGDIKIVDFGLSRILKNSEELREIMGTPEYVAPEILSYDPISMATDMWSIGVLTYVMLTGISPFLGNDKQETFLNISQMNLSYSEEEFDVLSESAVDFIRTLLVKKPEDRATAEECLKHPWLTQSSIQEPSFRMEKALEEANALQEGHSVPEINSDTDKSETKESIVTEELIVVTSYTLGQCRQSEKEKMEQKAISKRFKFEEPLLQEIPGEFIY
In words: Selectivity interaction (KinomeScan (DiscoverX)) EUB0000045b STK17A.

For experiment [13], the target named is Fibroblast growth factor receptor 2 (Homo sapiens) (UniProt P21802). In words: Selectivity interaction (Ambit KINOMEscan and KiNATiv profiling in Jurkat cells) EUB0000090b FGFR2. The class given is cell-based. The following applies: at 1 µM.
Sequence of Fibroblast growth factor receptor 2 (Homo sapiens) (P21802 22-821 limits assumed): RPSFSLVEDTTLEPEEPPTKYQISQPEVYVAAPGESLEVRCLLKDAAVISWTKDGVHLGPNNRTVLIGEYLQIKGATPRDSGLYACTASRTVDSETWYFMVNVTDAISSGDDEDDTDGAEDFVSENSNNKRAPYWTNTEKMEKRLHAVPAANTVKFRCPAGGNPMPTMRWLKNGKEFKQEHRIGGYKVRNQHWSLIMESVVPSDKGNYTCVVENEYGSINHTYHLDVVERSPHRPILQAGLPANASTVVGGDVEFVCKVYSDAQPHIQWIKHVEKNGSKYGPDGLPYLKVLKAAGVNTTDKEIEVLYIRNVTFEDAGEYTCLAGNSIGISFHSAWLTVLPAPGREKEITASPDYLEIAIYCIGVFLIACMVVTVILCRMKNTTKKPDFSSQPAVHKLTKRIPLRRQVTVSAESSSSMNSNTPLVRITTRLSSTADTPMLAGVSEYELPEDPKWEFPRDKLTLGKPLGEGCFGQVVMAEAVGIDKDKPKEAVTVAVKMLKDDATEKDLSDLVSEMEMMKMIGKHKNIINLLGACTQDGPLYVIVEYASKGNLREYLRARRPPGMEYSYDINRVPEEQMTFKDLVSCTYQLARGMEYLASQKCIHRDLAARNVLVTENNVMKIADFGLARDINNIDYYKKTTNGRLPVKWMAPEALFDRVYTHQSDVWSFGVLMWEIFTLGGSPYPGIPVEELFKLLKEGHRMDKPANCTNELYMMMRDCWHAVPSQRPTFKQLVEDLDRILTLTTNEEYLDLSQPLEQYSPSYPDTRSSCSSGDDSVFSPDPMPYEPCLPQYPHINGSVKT
The target of experiment [14] is T3, Muscarinic acetylcholine receptor M2 (Homo sapiens) (UniProt P08172).
T3 sequence (whole entry): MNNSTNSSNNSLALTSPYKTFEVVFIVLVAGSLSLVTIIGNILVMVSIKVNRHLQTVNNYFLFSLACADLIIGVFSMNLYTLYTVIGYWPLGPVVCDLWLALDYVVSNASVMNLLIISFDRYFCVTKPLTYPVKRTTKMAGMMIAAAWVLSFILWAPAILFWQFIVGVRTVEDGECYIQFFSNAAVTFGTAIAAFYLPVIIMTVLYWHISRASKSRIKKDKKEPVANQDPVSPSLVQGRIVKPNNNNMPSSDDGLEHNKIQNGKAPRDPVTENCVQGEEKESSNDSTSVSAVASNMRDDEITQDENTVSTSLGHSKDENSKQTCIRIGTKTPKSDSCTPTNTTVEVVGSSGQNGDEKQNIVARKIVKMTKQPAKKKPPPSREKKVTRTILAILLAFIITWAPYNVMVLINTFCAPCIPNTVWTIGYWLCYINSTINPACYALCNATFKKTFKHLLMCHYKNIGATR
In words: Selectivity interaction (Panel of kinases, GPCRs, ion channels and transporters (enzymatic assay)) EUB0000223bCl CHRM2.

Experiment [15] has as its target Platelet-derived growth factor receptor alpha (Homo sapiens, UniProt P16234). In words: Selectivity interaction (Kinase panel (33PanQinase(R) Activity Assay)) EUB0000877a PDGFRA.
In experiment [16] the test system is Epidermal growth factor receptor (Homo sapiens), P00533 [UNDEFINED MUTATION]. Kind of experiment: Selectivity interaction (KinomeScan (DiscoverX)) EUB0001079a EGFR. The following applies: at 1 µM.
Sequence of Epidermal growth factor receptor (Homo sapiens), P00533 [UNDEFINED MUTATION] (P00533 whole entry, looked up, change not shown): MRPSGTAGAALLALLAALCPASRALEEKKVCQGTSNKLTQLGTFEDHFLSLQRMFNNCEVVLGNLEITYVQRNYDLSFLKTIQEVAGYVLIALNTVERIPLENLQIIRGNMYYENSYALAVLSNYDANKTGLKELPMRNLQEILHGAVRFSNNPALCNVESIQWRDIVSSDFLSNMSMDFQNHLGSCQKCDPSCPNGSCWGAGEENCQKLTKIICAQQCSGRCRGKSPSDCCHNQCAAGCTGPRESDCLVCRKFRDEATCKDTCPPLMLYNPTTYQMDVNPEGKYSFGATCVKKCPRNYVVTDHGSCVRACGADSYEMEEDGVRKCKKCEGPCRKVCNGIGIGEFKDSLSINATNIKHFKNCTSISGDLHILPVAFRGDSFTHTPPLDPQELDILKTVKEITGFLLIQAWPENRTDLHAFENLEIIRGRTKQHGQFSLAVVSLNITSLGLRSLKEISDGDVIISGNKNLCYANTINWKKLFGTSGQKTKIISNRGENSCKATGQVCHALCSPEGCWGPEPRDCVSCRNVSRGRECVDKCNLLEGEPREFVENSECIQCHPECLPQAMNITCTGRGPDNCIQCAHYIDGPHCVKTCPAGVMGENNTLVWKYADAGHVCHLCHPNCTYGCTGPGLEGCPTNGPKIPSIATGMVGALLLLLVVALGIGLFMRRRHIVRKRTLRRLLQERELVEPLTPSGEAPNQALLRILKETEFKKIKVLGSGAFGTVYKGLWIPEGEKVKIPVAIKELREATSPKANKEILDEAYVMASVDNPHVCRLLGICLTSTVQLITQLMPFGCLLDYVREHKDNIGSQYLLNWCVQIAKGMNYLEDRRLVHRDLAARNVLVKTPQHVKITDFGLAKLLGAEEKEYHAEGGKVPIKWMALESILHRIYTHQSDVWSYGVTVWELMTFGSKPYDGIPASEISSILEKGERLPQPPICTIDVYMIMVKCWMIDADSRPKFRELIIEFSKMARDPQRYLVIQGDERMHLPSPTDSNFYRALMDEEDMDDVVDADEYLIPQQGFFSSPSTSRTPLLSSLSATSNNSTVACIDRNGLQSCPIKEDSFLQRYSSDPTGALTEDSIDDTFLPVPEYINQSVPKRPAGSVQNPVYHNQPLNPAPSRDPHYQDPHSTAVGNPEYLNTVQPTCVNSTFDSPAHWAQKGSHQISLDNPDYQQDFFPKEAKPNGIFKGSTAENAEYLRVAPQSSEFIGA

Sequence of Platelet-derived growth factor receptor alpha (P16234 whole entry): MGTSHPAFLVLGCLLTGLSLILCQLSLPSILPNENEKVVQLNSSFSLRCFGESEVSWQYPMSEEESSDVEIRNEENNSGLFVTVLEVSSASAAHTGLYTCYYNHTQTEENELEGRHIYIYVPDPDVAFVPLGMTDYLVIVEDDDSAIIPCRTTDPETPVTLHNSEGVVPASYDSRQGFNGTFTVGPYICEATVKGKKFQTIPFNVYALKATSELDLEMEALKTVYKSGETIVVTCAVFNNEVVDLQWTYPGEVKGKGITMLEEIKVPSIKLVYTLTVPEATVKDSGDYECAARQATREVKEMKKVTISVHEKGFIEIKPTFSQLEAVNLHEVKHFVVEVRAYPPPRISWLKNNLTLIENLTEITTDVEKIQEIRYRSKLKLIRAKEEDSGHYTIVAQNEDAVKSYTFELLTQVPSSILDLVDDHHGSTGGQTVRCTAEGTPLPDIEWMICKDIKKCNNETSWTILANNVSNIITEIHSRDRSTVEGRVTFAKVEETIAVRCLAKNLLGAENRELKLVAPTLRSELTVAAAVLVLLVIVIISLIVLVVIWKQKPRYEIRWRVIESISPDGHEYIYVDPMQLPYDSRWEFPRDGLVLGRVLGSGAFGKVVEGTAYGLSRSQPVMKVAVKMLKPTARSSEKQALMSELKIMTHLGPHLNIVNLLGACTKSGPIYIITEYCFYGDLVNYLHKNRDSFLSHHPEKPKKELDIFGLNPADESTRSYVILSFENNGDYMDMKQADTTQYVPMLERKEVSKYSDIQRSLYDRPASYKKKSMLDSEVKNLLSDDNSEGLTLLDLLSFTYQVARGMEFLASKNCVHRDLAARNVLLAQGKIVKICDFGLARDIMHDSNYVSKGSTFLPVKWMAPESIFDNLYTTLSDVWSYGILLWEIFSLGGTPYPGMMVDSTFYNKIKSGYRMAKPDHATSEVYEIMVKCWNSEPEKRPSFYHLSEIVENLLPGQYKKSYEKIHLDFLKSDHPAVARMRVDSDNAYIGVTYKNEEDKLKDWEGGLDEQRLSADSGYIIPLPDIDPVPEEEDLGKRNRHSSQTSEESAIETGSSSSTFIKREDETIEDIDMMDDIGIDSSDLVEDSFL
Sequence of G protein-coupled receptor kinase 4 (Homo sapiens) (P32298 whole entry, looked up): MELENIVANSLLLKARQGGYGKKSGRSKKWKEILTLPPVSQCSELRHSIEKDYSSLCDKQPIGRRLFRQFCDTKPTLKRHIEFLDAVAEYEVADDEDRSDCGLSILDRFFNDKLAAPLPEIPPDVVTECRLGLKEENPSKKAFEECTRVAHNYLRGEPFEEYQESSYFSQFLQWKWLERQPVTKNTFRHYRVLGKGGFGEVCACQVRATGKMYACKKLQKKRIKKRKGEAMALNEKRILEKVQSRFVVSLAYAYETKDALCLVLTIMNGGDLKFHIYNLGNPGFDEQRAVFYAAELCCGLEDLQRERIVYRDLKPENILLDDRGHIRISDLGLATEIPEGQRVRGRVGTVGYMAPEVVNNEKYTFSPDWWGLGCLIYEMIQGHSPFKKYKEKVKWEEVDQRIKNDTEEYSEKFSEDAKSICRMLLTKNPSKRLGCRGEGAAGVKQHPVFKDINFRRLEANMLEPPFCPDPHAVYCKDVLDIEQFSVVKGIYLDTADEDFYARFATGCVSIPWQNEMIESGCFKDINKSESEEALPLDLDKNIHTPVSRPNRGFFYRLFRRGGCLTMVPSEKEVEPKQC
Sequence of Bone morphogenetic protein receptor type-1A (P36894 whole entry): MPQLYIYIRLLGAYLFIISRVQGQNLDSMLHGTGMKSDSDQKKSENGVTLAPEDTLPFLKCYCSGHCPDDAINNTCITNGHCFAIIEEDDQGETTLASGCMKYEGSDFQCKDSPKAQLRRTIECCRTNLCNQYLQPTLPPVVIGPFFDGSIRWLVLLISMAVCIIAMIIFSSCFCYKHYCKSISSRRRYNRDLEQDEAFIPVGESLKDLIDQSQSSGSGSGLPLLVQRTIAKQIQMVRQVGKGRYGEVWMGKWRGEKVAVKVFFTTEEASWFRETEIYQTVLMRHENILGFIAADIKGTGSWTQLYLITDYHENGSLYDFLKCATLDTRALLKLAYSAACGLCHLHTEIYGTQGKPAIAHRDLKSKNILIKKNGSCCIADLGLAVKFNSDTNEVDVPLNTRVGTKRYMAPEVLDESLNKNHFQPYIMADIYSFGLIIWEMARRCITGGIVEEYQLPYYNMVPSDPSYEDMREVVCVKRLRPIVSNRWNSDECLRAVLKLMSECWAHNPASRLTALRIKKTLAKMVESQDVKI

For the compound `Cn1cc(-n2cnc3c(NCc4nc5cc(Cl)c(Cl)cc5[nH]4)nc(N4CCOCC4)nc32)cn1`, the % of control in experiment [1] came out at 0.672%. The % of inhibition is -64.3% in experiment [2], -33.3% in experiment [3], -162% in experiment [4] and -26.4% in experiment [5].
For the compound `O=C(NOC[C@H](O)CO)c1ccc(F)c(F)c1Nc1ccc(I)cc1F`, in experiment [6], the % of control was 86%.
On to `CNC(=O)Nc1ccc(-c2nc(N3CC4CCC(C3)O4)c3cnn(C4CCC5(CC4)OCCO5)c3n2)cc1`, for which the % of control in experiment [7] and in experiment [8] was 100% throughout.
Take `Cc1cc([C@@H](C)Nc2ccccc2C(=O)O)c2nc(N3CCOCC3)cc(=O)n2c1` [AZD-6482]: the values for the % of control in experiment [9] and in [10] were 87% and 100%, respectively.
As for `CC[C@@H]1[C@H](F)C(=O)N[C@@H]1COc1nccc2cc(C(N)=O)c(OC)cc12` [ZIMLOVISERTIB], the % of inhibition in experiment [11] (at 0.01 µM) was -7.8%; in [11] (at 0.04 µM), -35.7%; in experiment [11] (at 0.2 µM), -16.6%; in [11] (at 1 µM), -3.6%; in experiment [11] (at 5 µM), -19.3%.
Regarding `C=CC(=O)Nc1cc(-n2c(=O)ccc3cnc4ccc(-c5ccc(NS(C)(=O)=O)cc5)cc4c32)ccc1C`, the % of control in [12] (at 1 µM) and in [12] (at 10 µM) was 100% throughout.
For `CN(C)C/C=C/C(=O)Nc1ccc(C(=O)N2CCCC(Nc3ncc(Cl)c(-c4c[nH]c5ccccc45)n3)C2)cc1` (stereo unspecified), the % of control in experiment [13] was determined as 67%.
As to `COc1cc(C(=O)N2CC[C@@H](O)[C@@H](N)C2)cc2nc(-c3cc4ccccc4n3CC3CC3)n(C)c12`, in experiment [14], the pXC50 is under 4.8 M.
The IC50 is the concentration at which inhibition is half-maximal. As to `CCC(=O)N1CC[C@H](Nc2ncnc3c2CN(c2cnc(OC)c(C(F)(F)F)c2)CC3)C1` [LENIOLISIB], the IC50 in experiment [15] was over 10 µM.
`Nc1cnc(N2CCc3cc(S(=O)(=O)Nc4c(F)cc(Cl)cc4F)cc(N4CCCC4=O)c32)nc1` [TP-020n] returned a % of control in experiment [16] of 100%.
